Tested on: A549 lung cancer cells
Assay: Timing and duration of Compound B-2 exposure on sensitization of A549 cells to doxorubicin hydrochloride (24 h); CellTiterGlo viability at 6 days, Bliss analysis
Format: cell-based, human
Set-up: scale not given here
Protocol: Cell lines, reagents, equipment, software: The human cancer cell line A549 (CCL-185) was obtained from American Type Culture Collection (ATCC; Manassas, VA). Compound B-2 used in these experiments was not prepared as a co-crystal. A 10 mM stock solution of Compound B-2 was prepared in DMSO (ATCC catalog #4-X) and stored at −20° C. Doxorubicin hydrochloride (dox) was obtained from Sigma (St. Louis, MO) (catalog #D1515), dissolved in DMSO to a 10 mM concentration and stored at −20° C.
Cell culture: The A549 human lung cancer cell line was cultured in DMEM (Life Technologies, catalog #11995) supplemented with 10% fetal bovine serum (Hyclone, catalog #SH30071.03), 1× GlutaMAX (Life Technologies, catalog #35050-061), pyruvate (Life Technologies, catalog #11360-070) and 1× Penicillin/Streptomycin (Life Technologies, catalog #15070) (complete medium). Cells were maintained at a sub-confluent state by passaging every 3-4 days. Cells were plated at 1000 cells per well in a 96-well, clear-bottomed microplate (Corning, catalog #3904), and incubated in a 37° C., 5% CO2 incubator attach overnight prior to compound addition.
Treatment with Compound B-2 and Doxorubicin hydrochloride: Ten mM stocks of Compound B-2 and doxorubicin hydrochloride were made in DMSO and added in combination to the plated cells using an HP digital dispenser D300 (Tecan, Switzerland). For these experiments, combinations with Compound B-2 at all concentrations were run in singlicate using a combination matrix in which Compound B-2 was added as a titration from 20 μM to 0.1 μM on the X-axis of the plate and doxorubicin hydrochloride added in a 2-fold dilution from 80 nM to 0.125 nM for the 6 day and 24 hour co-incubation experiments and 8 nM to 0.0125 nM for the rest of the experiments on the Y-axis. One row contained only the Compound B-2 titration and one column only the doxorubicin hydrochloride titration. Two columns of cells were used as a no-treatment control from which the fractional survival of the treated cells was determined. Cells were cultured at 37° C., 5% CO2, 95% air and 100% relative humidity. The timing of compound addition, the washout of the compounds from the wells of the plates and re-addition of doxorubicin hydrochloride was as detailed in FIG. 1. Briefly, the media from all of the wells in the plate were removed by hand using a multi-pipette, fresh (no compound) media was added, then removed again and then fresh media was added one last time. The re-addition of doxorubicin hydrochloride, where indicated, was performed using the HP D300 as outlined in FIG. 1. After 24 h, all plates were washed as detailed above and fresh medium (no compound) added. The plates were incubated for an additional 5 days (6 days in total).
Cell Viability Analysis: Six days after initial compound addition, 50 μL of CellTiterGlo (prepared according to manufacturer's protocol) was added to each well of the compound titration plates. Luminescence was read on a Pherastar FS luminescence reader (BMG Labtech, Offenberg, Germany) and these values were used for all further analyses.
Computational Methods: Cell viabilities were evaluated for a matrix of doxorubicin hydrochloride and Compound B-2 concentrations in a series of experiments testing different times of Compound B-2 addition and durations of Compound B-2 exposure. The data from each of these experiments were analyzed separately. The steps in the analysis of each experiment are described below. • 1. For each Compound B-2 concentration, the EC50 of doxorubicin hydrochloride was calculated using Prism software. The concentration in the matrix of doxorubicin hydrochloride concentrations closest to the EC50 was then identified. • 2. […]

[2H]c1nc(C)nc([2H])c1-c1cc(NC[C@@H](C)c2cccc3c(C(=O)NC)ccnc23)ncn1 [Compound B-2]
Bliss AUC (Experiment A: Compound B-2 added 0 h after doxorubicin hydrochloride, exposure 24 h): 728 | Bliss AUC (Experiment B: Compound B-2 added at 0 h, exposure 16 h): 101 | Bliss AUC (Experiment C: Compound B-2 added at 8 h, exposure 16 h): 710 | Bliss AUC (Experiment E: Compound B-2 added at 4 h, exposure 12 h): 266 | Bliss AUC (Experiment G: Compound B-2 added at 12 h, exposure 12 h): 415 | Bliss AUC (Experiment H: Compound B-2 added at 0 h, exposure 8 h): 71 | Bliss AUC (Experiment I: Compound B-2 added at 4 h, exposure 8 h): 49 | Bliss AUC (Experiment J: Compound B-2 added at 8 h, exposure 8 h): 12 | Bliss AUC (Experiment K: Compound B-2 added at 12 h, exposure 8 h): 124 | Bliss AUC (Experiment L: Compound B-2 added at 16 h, exposure 8 h): 323
